Test system: mouse B2M gene
Experiment: In vivo editing in mouse bone marrow, G650 sgRNA, % indel by NGS
Design: species or system CD-1 female mice
Settings: G650, i.v. dose 1 mg/kg, experiment 108
Procedure: [Worded in the source for another target; this target is reported under the same test.] In brief, to quantitatively determine the efficiency of editing at the target location in the genome, genomic DNA was isolated and deep sequencing was utilized to identify the presence of insertions and deletions introduced by gene editing.
PCR primers were designed around the target site (e.g., within B2M), and the genomic area of interest was amplified. Additional PCR was performed according to the manufacturer's protocols (Illumina) to add the necessary chemistry for sequencing. The amplicons were sequenced on an Illumina MiSeq instrument. The reads were aligned to the mouse or rat reference genome (e.g., GRCm38) after eliminating those having low quality scores. The resulting files containing the reads were mapped to the reference genome (BAM files), where reads that overlapped the target region of interest were selected and the number of wild type reads versus the number of reads which contain an insertion, substitution, or deletion was calculated.
The editing percentage (e.g., the “indel efficiency” or “percent indels”) was defined as the total number of sequence reads with insertions or deletions over the total number of sequence reads, including wild type.
The in vivo delivery to liver, spleen, and bone marrow was assessed by measuring editing efficiency for materials delivered with formulations including various amine lipid compounds. […]

For `CCCCC/C=C\C/C=C\CCCCCCCC(=O)OCC(COC(=O)CCC(OCCCCCCCC)OCCCCCCCC)COC(=O)OCCCN(CC)CC` (centres unmarked) [Compound 1, 3-((4,4-bis(octyloxy)butanoyl)oxy)-2-((((3-(diethylamino)propoxy)carbonyl)oxy)methyl)propyl (9Z,12Z)-octadeca-9,12-dienoate, reference compound], the “% Editing in BM” value was 2.66%.
In the case of `CCCCC/C=C\C/C=C\CCCCCCCC(=O)OCC(COC(=O)CC12CC3CC(CC(C3)C1)C2)COC(=O)OCCCN(CC)CC` (centres unmarked) [Compound 107, 3-(2-((3 r,5 r, 7r)-adamantan-1-yl)acetoxy)-2-((((3-(diethylamino)propoxy)carbonyl)oxy)methyl)propyl (9Z,12Z)-octadeca-9,12-dienoate], the “% Editing in BM” value is reported as 0.32%.

Source: patent publication US20220402862A1 (Intellia Therapeutics, Inc., priority 2019, published 2022)
